The subject of experiment [1] is trypsin. The conditions noted are these: stated as known; cited from earlier work.
In experiment [2] the test system is retinal neuronal cells (RGC in ganglion cell layer, inner plexiform layer) damaged by NMDA. As to the kind of experiment: NMDA-induced retinal damage in rats (intravitreal administration, histology after 14 days). Type of experiment: in vivo. The conditions noted are these: rat, 14 days after administration. An excerpt: In order to study the effect of protecting a retinal neuronal cell of a compound represented by the general formula [I] or a salt thereof, the effects of nafamostat and FUT-187, each of which is a compound represented by the general formula [I] or a salt thereof on NMDA-induced retinal damage in rats were studied. As comparative compounds, camostat (N,N-dimethylcarbamoylmethyl-4-(4-guanidinobenzoyloxy)phenylacetate methanesulfonate) represented by the following formula [II] and gabexate (ethyl-4-(6-guanidinohexanoyloxy)benzoate methanesulfonate) represented by the following formula [III] were used.
Each of NMDA, nafamostat and FUT-187 was dissolved in distilled water, whereby an NMDA solution, a nafamostat solution, and an FUT-187 aqueous solution were obtained. Then, the solutions were appropriately mixed, whereby an aqueous solution of 4 mM NMDA and 2 mM nafamostat (hereinafter referred to as “Test liquid 1”) and an aqueous solution of 4 mM NMDA and 2 mM FUT-187 (hereinafter referred to as “Test liquid 2”) were obtained. In the same manner, an aqueous solution of 4 mM NMDA and 20 mM camostat (hereinafter referred to as “Comparative test liquid 1”) and an aqueous solution of 4 mM NMDA and 20 mM gabexate (hereinafter referred to as “Comparative test liquid 2”) were obtained. Further, by mixing the NMDA solution and distilled water, a 4 mM NMDA liquid (hereinafter referred to as “NMDA liquid”) was obtained.
Mydriasis was induced in a rat with a 0.5% (w/v) tropicamide-0.5% phenylephrine hydrochloride ophthalmic solution, and then, anesthesia was induced with 3% halothane, and then, anesthesia was maintained with 1% halothane (halothane was vaporized with 0.5 L oxygen/min and 1.5 L dinitrogen monoxide/min). Then, a 0.4% (w/v) oxybuprocaine hydrochloride ophthalmic solution was instilled to the rat to anesthetize the surface of the eyeball, and by using a 32-gauge Hamilton microsyringe, 5 μl of Test liquid 1 was intravitreally administered under an operating microscope. Further, the same procedure as above was carried out by sequentially altering Test liquid 1 into distilled water, NMDA liquid, Test liquid 2, Comparative test liquid 1 and Comparative test liquid 2, respectively. Then, 14 days after the administration, the eyeball was taken out and fixed in 2.5% glutaraldehyde-10% neutral buffered formalin for 1 day. Thereafter, the cornea and lens were excised, and the 2.5% glutaraldehyde-10% neutral buffered formalin was changed to 10% neutral buffered formalin. At a later date, dehydration was carried out, followed by paraffin embedding and slicing and pathological tissue sections (with a thickness of 3 μm) stained with hematoxylin-eosin (HE) were prepared. From 8 sections which had been prepared by slicing the specimen with an interval of 15 μm per one eye such that the optic papilla was contained, 3 sections were optionally selected. With regard to the thus selected sections, a photograph of the retina in the range of from 1 to 1.5 mm on the left or right side from the optic papilla was taken, and the number of cells in the ganglion cell layer (GCL) in the retina (RGC number) and the thickness of the inner plexiform layer (IPL) were measured. From these measured values and in accordance with Equation 1 and Equation 2, a ganglion cell death inhibition rate and an IPL thinning inhibition rate were calculated. […]

Setting [3] is: 100 nmol/eye co-administered with 4 mM NMDA (5 μl).
Where [4] appears, read: 10 nmol/eye co-administered with 4 mM NMDA (5 μl).
[5] abbreviates: 10 nmol/eye co-administered with 4 mM NMDA (5 μl), listed as nafamostat.
The mark [6] stands for this setting: 10 nmol/eye co-administered with 4 mM NMDA (5 μl), listed as FUT-187.

Turning to `CCOC(=O)c1ccc(OC(=O)CCCCCNC(=N)N)cc1` [Comparative test liquid 2, ethyl-4-(6-guanidinohexanoyloxy)benzoate methanesulfonate], the trypsin inhibitory activity result in experiment [1] was “have a trypsin inhibitory activity”. Moreover, in experiment [2] (setting [3]), the “Ganglion cell death inhibition rate” value is on record as 17.8% and the “IPL thinning inhibition rate” value amounted to 2.4%.

Turning to `N=C(N)Nc1ccc(C(=O)Oc2ccc3cc(C(=N)N)ccc3c2)cc1` [Test liquid 1, 6′-amidino-2′-naphthyl-4-guanidinobenzoate dimethanesulfonate], the trypsin inhibitory activity entry in experiment [1] was “have the same activity”. In experiment [2] (setting [4]), the “Ganglion cell death inhibition rate” value was 78.8% and the “IPL thinning inhibition rate” value stood at 54.8%. For the same compound, in experiment [2] (setting [5]), the “Ganglion cell death inhibition rate” value was “high” and the “IPL thinning inhibition rate” value is listed as “high”.

For the compound `N=C(N)c1ccc2cc(OC(=O)c3ccc(NC4=NCCN4)cc3)ccc2c1` [Test liquid 2, 6′-amidino-2′-naphthyl-(4-(4,5-dihydro-1H-2-imidazolyl)amino)benzoate dimethanesulfonate], the trypsin inhibitory activity result in experiment [1] is recorded as “have the same activity”. In addition, in experiment [2] (setting [4]), the “Ganglion cell death inhibition rate” value is 136.8% and the “IPL thinning inhibition rate” value came out at 63.1%. In experiment [2] (setting [6]), the “Ganglion cell death inhibition rate” value is given as “high” and the “IPL thinning inhibition rate” value is “high”.

The values are drawn from patent US20090088472A1, “Protective Agent for Neuronal Cell Comprising Amidino Derivative as Active Ingredient” (priority 2006, published 2009).
